Laboratory results as given in article PMC8869984, “Multifunctional Silver(I) Complexes with Metronidazole Drug Reveal Antimicrobial Properties and Antitumor Activity against Human Hepatoma and Colorectal Adenocarcinoma Cells” (Cancers, 2022).

Assays:
[1] = light stability in normal daylight, visual assessment; assay type: physicochemical; details: for time to complete darkening: on both groundworks (paper, tissue paper)
Balb/c 3T3 cells [2] = test: cytotoxicity, MTT, NRU, TPC and LDH assays taken together, 72 h; assay type: cell-based, murine; details: non-cancer Balb/c 3T3 cells, range over MTT, TPC, LDH
Description: The human hepatoma (HepG2) and colorectal adenocarcinoma (Caco-2) cells were purchased from the American Type Culture Collection: ATCC HB-8065 and ATCC HTB-37, respectively. These cells were cultured in Minimum Essential Medium Eagle (MEME) (ATCC). The murine fibroblasts cell line (Balb/c 3T3 clone A31) (gift from the Department of Swine Diseases of the National Veterinary Research Institute in Pulawy) was cultured in Dulbecco’s Modified Eagle Medium (DMEM) (ATCC). The media were supplemented with 10% BCS (Balb/c 3T3), 10% FBS (HepG2), 20% FBS (Caco-2), 1% L-glutamine, 1% antibiotic solution. […] Cytotoxicity was assessed after 72 h of exposure of the cells to compounds. […]
The metabolic activity of living cells was assessed by the measurement of the activity of dehydrogenases. […] The plate was shaken for 15 min at room temperature and transferred to a microplate reader Synergy HTX multi-mode reader (BioTek® Instruments Inc., Winooski, VT, USA) to measure the absorbance at 570 nm, using a blank as a reference. Cytotoxicity was expressed as a percentage of the negative control.
This method is based on staining living cells with neutral red, which readily diffuses through the plasma membrane and accumulates in lysosomes. […] Cytotoxicity was expressed as a percentage of the negative control. […]

Balb/c 3T3 cells [3] = test: LDH leakage assay (membrane integrity), 72 h exposure; assay type: cell-based, murine
Description: (§1) The human hepatoma (HepG2) and colorectal adenocarcinoma (Caco-2) cells were purchased from the American Type Culture Collection: ATCC HB-8065 and ATCC HTB-37, respectively. These cells were cultured in Minimum Essential Medium Eagle (MEME) (ATCC). The murine fibroblasts cell line (Balb/c 3T3 clone A31) (gift from the Department of Swine Diseases of the National Veterinary Research Institute in Pulawy) was cultured in Dulbecco’s Modified Eagle Medium (DMEM) (ATCC). The media were supplemented with 10% BCS (Balb/c 3T3), 10% FBS (HepG2), 20% FBS (Caco-2), 1% L-glutamine, 1% antibiotic solution. The cells were maintained in 75 cm^2 cell culture flasks (NUNC) in a humidified incubator at 37 °C in an atmosphere of 5% CO2. The medium was refreshed every two or three days, and the cells were trypsinized by 0.25% trypsin–0.02% EDTA after reaching 70–80% confluence. Single cell suspensions were prepared and adjusted to a density of 2 × 10^5 cell/mL^−1 (HepG2), 1 × 10^5 cell/mL^−1 (Caco-2) and 5 × 10^4 cell/mL^−1 (Balb/c 3T3). The cell suspension was transferred to 96-well plates (100 µL/well) and incubated for 24 h before the exposure to the studied compounds. Stock solutions of ligands and metal complexes were prepared in sterile water and diluted with culture medium to obtain a concentration range from 0.1 to 10 µM. The final concentration of sterile water was 0.1% in the medium. […] As a negative control, cultured cells were grown in the absence of studied compounds. Each concentration was tested in six replicates in three independent experiments. Cytotoxicity was assessed after 72 h of exposure of the cells to compounds. The medium was not changed during the incubation time.
The integrity of the plasma membrane was assessed through the test of lactate dehydrogenase (LDH) release, which was monitored using the commercially available Cytotoxicity Detection Kit (LDH) (Roche Diagnostics, Warsaw, Poland). […] The absorbance was measured at 492 nm in a microplate reader Synergy HTX multi-mode reader (BioTek® Instruments Inc., Winooski, VT, USA) using a blank as a reference. […]

Balb/c 3T3 cells [4] = test: TPC assay (total protein content), 72 h exposure; assay type: cell-based, murine
Description: as §1
This assay is based upon staining the total cellular protein (proliferation). […] The absorbance was measured at 595 nm in a microplate reader Synergy HTX multi-mode reader (BioTek® Instruments Inc., Winooski, VT, USA) using a blank as a reference. Cytotoxicity was expressed as a percentage of the negative control. […]

Caco-2 cells = test: LDH leakage assay (membrane integrity), 72 h exposure; assay type: cell-based, human; details: Caco-2, LDH
Balb/c 3T3 cells [5] = test: NRU assay (lysosomal activity), 72 h exposure; assay type: cell-based, murine
Description: as §1
This method is based on staining living cells with neutral red, which readily diffuses through the plasma membrane and accumulates in lysosomes. […] After 10 min of shaking, the absorbance of the dissolved NR was measured using a Synergy HTX multi-mode reader (BioTek® Instruments Inc., Winooski, VT, USA) at 540 nm using a blank as a reference. Cytotoxicity was expressed as a percentage of the negative control. […]

solubility in water = assay type: physicochemical; details: qualitative statement
S. aureus biofilm = test: qualitative antibiofilm activity, confocal laser scanning microscope (CLSM); details: 500 mg/L, 24 h exposure
[6] = tested on: reference aerobic and anaerobic microorganisms (ATCC); test: micro-dilution broth method, whole panel of reference strains; assay type: cell-based; details: against the majority of tested bacterial strains
[7] = 1.25 µmol applied on tissue paper

## O=S(=O)([O-])[O-].[Ag+].[Ag+] [Ag2SO4, silver sulfate]
[1]; 1.25 µmol applied on paper
  time of exposure after which darkening began: 10 min
[1]; [7]
  time of exposure after which darkening began: 30 min
[1]
  time to complete darkening: 24 h
Balb/c 3T3 cells [2]
  IC50: 1.92 to 2.57 µM

## O=[N+]([O-])[O-].[Ag+] [AgNO3, Silver nitrate]
[1]; 1.25 µmol applied on paper
  time of exposure after which darkening began: 10 min
[1]; [7]
  time of exposure after which darkening began: 30 min
[1]
  time to complete darkening: 24 h

## Cc1ncc([N+](=O)[O-])n1CCO [MTZ, 2-Methyl-5-nitroimidazole-1-ethanol]
Balb/c 3T3 cells [3]; Mus musculus, BALB/c3T3, Balb/c 3T3, LDH, mean ± SD, n = 3
  IC50: > 10 µM
Balb/c 3T3 cells [4]; Mus musculus, BALB/c3T3, Balb/c 3T3, TPC, mean ± SD, n = 3
  IC50: > 10 µM
Caco-2 cells; Homo sapiens, mean ± SD, n = 3
  IC50: > 10 µM
Balb/c 3T3 cells [5]; Mus musculus, BALB/c3T3, Balb/c 3T3, NRU, mean ± SD, n = 3
  IC50: > 10 µM

## Cc1ncc([N+](=O)[O-])n1CCO.Cc1ncc([N+](=O)[O-])n1CCO.Cc1ncc([N+](=O)[O-])n1CCO.Cc1ncc([N+](=O)[O-])n1CCO.O=S(=O)([O-])[O-].[Ag+].[Ag+] [[Ag(MTZ)2]2SO4]
Balb/c 3T3 cells [3]; Balb/c 3T3, LDH, Figure 6
  lowest concentration with significant (p ≤ 0.05) effect: 5.0 µM
Balb/c 3T3 cells [4]; Balb/c 3T3, TPC, Figure 6
  lowest concentration with significant (p ≤ 0.05) effect: 5.0 µM
Solubility in water
  solubility in water: more soluble in water in comparison to Ag2SO4
S. aureus biofilm
  effect on biofilm (CLSM, qualitative): significantly reduced biofilm density
[6]
  minimal inhibition concentration (MIC), range: 0.24 to 250 µg/mL
Caco-2 cells; Figure 6
  lowest concentration with significant (p ≤ 0.05) disintegration of cellular membranes: 0.5 µM
Balb/c 3T3 cells [5]; Balb/c 3T3, NRU, Figure 6
  lowest concentration with significant (p ≤ 0.05) effect: 5.0 µM
